Assay results reported in US10781214B2, “Kinase inhibitor against wild-type and mutant EGFR” (PRECEDO PHARMACEUTICALS CO., LTD, priority 2015, dated 2020).
Where two headings read alike, the source gives them in different places.

Legend:
[1] = system: NCI-H1975 (expressing EGFR L858R/T790M double-mutant gene); experiment: Cancer cell growth, Cell Titer-Glo, 72 h: NCI-H1975; assay type: cell-based; settings: Homo sapiens
Description: (§1) Compounds of the present invention were further evaluated for their selectivity in inhibiting proliferation of cancer cells by testing effects of the novel kinase inhibitors on proliferation of cancer cells. In the examples the following cells were selected: human non-small cell lung cancer cell NCI-H1975 (expressing EGFR L858R/T790M double-mutant gene), human-derived non-small cell lung cancer cell PC-9 (expressing EGFR delE746_A750 mutant gene), human-derived non-small cell lung cancer cell HCC827 (expressing EGFR delE746_A750 mutant gene), human lung adenocarcinoma cell HCC4006 (expressing EGFR delE746_A750 mutant gene), human non-small cell lung cancer cell NCI-H3255 (expressing EGFR L858R mutant gene), human skin squamous carcinoma cell A431 (expressing wild-type EGFR gene), human non-small cell lung cancer cell A549 (expressing wild-type EGFR gene), human non-small cell lung cancer cell NCI-H460 (expressing wild-type EGFR gene), human non-small cell lung cancer cell NCI-H2122 (expressing wild-type EGFR gene), Chinese hamster ovary (CHO) cell (Cricetulus griseus, hamster, Chinese, ovary), Chinese hamster lung cell (CHL), mouse pro-B cell BaF3. The cells above were all purchased from (USA).
(§2) The cells were incubated for 72 h, and then the number of viable cells was determined via quantitative determination with a microplate reader by using Cell Titer-Glo® (Promega, the USA) Luminescent Cell Viability Assay kit.

[2] = system: PC-9 (expressing EGFR delE746_A750 mutant gene); experiment: Cancer cell growth, Cell Titer-Glo, 72 h: PC-9; assay type: cell-based; settings: Homo sapiens
Description: as §1, §2

[3] = system: HCC827 (expressing EGFR delE746_A750 mutant gene); experiment: Cancer cell growth, Cell Titer-Glo, 72 h: HCC827; assay type: cell-based; settings: Homo sapiens
Description: as §1, §2

[4] = system: NCI-H3255 (expressing EGFR L858R mutant gene); experiment: Cancer cell growth, Cell Titer-Glo, 72 h: NCI-H3255; assay type: cell-based; settings: Homo sapiens
Description: as §1, §2

[5] = system: A431 (expressing wild-type EGFR gene); experiment: Cancer cell growth, Cell Titer-Glo, 72 h: A431; assay type: cell-based; settings: Homo sapiens
Description: as §1, §2

[6] = system: A549 (expressing wild-type EGFR gene); experiment: Cancer cell growth, Cell Titer-Glo, 72 h: A549; assay type: cell-based; settings: Homo sapiens
Description: as §1, §2

[7] = system: NCI-H460 (expressing wild-type EGFR gene); experiment: Cancer cell growth, Cell Titer-Glo, 72 h: NCI-H460; assay type: cell-based; settings: Homo sapiens
Description: as §1, §2

mouse pro-B cell BaF3 = experiment: Cell growth, Cell Titer-Glo, 72 h: BaF3; assay type: cell-based
Description: as §1, §2

[8] = system: BaF3-TEL-EGFR (stably expressing wild-type EGFR kinase); experiment: Cell growth, Cell Titer-Glo, 72 h: BaF3-TEL-EGFR; assay type: cell-based; settings: Mus musculus
Description: (§3) In addition, this example further uses: mouse BaF3-TEL-EGFR (stably expressing wild-type EGFR kinase), mouse BaF3-TEL-EGFR-L858R (stably expressing EGFR L858R mutant kinase), mouse BaF3-TEL-EGFR-T790M (stably expressing EGFR T790M mutant kinase), mouse BaF3-FL-EGFR-DeI19 (stably expressing EGFR delE746_A750 mutant kinase), mouse BaF3-FL-EGFR-T790M-L858R (stably expressing EGFR T790M/L858R mutant kinase), mouse BaF3/P210 (stably expressing bcr/abl˜(P210) mutant kinase), mouse BaF3-TEL-ABL-T315I (stably expressing ABLT315I mutant kinase), mouse BaF3-FLT3-ITD (stably expressing FLT3/ITD mutant kinase), mouse BaF3-TEL-JAK2 (stably expressing JAK2 kinase), mouse BaF3-TEL-JAK3 (stably expressing JAK3 kinase), mouse BaF3-TPR-MET (stably expressing MET kinase), mouse BaF3-TEL-BLK (stably expressing BLK kinase), mouse BaF3-TEL-ABL (stably expressing ABL kinase), mouse BaF3-TEL-BMX (stably expressing BMX kinase), mouse BaF3-TEL-ALK (stably expressing ALK kinase). The above cell lines were all constructed by our laboratory according to the following method: the kinase region sequences of human […], EGFR L858R, EGFR T790M, EGFR delE746_A750, EGFR T790M/L858R, bcr/abl˜(P210), ABL T315I, FLT3/ITD, JAK2, JAK3, MET, BLK, ABL, BMX, ALK were amplified respectively by PCR, inserted respectively into MSCV-Puro vectors harboring N-terminal fragment and/or NPM fragment and/or TPR fragment (Clontech), then the vectors were stably transfected into mouse BaF3 cells by retrovirus methods and growth factor IL-3 was removed, eventually obtaining cell lines that are transferred protein (EGFR, EGFR L858R, EGFR T790M, EGFR delE746_A750, EGFR T790M/L858R, bcr/abl˜(P210), ABL T315I, FLT3/ITD, JAK2, JAK3, MET, BLK, ABL, BMX, ALK)-dependent.
as §2

[9] = system: BaF3-TEL-EGFR-L858R (stably expressing EGFR L858R mutant kinase); experiment: Cell growth, Cell Titer-Glo, 72 h: BaF3-TEL-EGFR-L858R; assay type: cell-based; settings: Mus musculus
Description: as §3, §2

[10] = system: BaF3-TEL-EGFR-T790M (stably expressing EGFR T790M mutant kinase); experiment: Cell growth, Cell Titer-Glo, 72 h: BaF3-TEL-EGFR-T790M; assay type: cell-based; settings: Mus musculus
Description: as §3, §2

[11] = system: NCI-H2122 (expressing wild-type EGFR gene); experiment: Cancer cell growth, Cell Titer-Glo, 72 h: NCI-H2122; assay type: cell-based; settings: Homo sapiens, NCI-H2122 cells
Description: as §1, with “The cells above were all purchased from (USA).” left out
as §2

[12] = system: BaF3-FL-EGFR-T790M-L858R (stably expressing EGFR T790M/L858R mutant kinase); experiment: Cell growth, Cell Titer-Glo, 72 h: BaF3-FL-EGFR-T790M-L858R; assay type: cell-based; settings: Mus musculus, BaF3-FL-EGFR-T790M-L858R cells
Description: as §3, §2

[13] = system: EGFR and signaling proteins in A549, H1975, PC-9, H3255 and HCC827 cells; experiment: Effect on cell signaling pathways (phosphorylation of EGFR and downstream proteins); assay type: cell-based, human; settings: A549, H1975, PC-9, H3255, HCC827 cells; 4 hour-treatment; 0.01-3 μM
[14] = system: BaF3-FL-EGFR-Del19 (stably expressing EGFR delE746_A750 mutant kinase); experiment: Cell growth, Cell Titer-Glo, 72 h: BaF3-FL-EGFR-Del19; assay type: cell-based; settings: Mus musculus, BaF3-FL-EGFR-Del19 cells
Description: In addition, this example further uses: mouse BaF3-TEL-EGFR (stably expressing wild-type EGFR kinase), mouse BaF3-TEL-EGFR-L858R (stably expressing EGFR L858R mutant kinase), mouse BaF3-TEL-EGFR-T790M (stably expressing EGFR T790M mutant kinase), mouse BaF3-FL-EGFR-DeI19 (stably expressing EGFR delE746_A750 mutant kinase), mouse BaF3-FL-EGFR-T790M-L858R (stably expressing EGFR T790M/L858R mutant kinase), mouse BaF3/P210 (stably expressing bcr/abl˜(P210) mutant kinase), mouse BaF3-TEL-ABL-T315I (stably expressing ABLT315I mutant kinase), mouse BaF3-FLT3-ITD (stably expressing FLT3/ITD mutant kinase), mouse BaF3-TEL-JAK2 (stably expressing JAK2 kinase), mouse BaF3-TEL-JAK3 (stably expressing JAK3 kinase), mouse BaF3-TPR-MET (stably expressing MET kinase), mouse BaF3-TEL-BLK (stably expressing BLK kinase), mouse BaF3-TEL-ABL (stably expressing ABL kinase), mouse BaF3-TEL-BMX (stably expressing BMX kinase), mouse BaF3-TEL-ALK (stably expressing ALK kinase). […]
as §2

[15] = NCI-H1975 cells, 72 h, read-out: GI50
[16] = PC-9 cells, 72 h, read-out: GI50
[17] = HCC827 cells, 72 h, read-out: GI50
[18] = NCI-H3255 cells, 72 h, read-out: GI50
[19] = A-431, A431 cells, 72 h, read-out: GI50
[20] = A549 cells, 72 h, read-out: GI50
[21] = NCI-H460 cells, 72 h, read-out: GI50
[22] = BaF3 cells, 72 h, read-out: GI50
[23] = BaF3-TEL-EGFR cells, read-out: GI50
[24] = BaF3-TEL-EGFR-L858R cells, read-out: GI50
[25] = BaF3-TEL-EGFR-T790M cells, read-out: GI50

GI50 [1, 15] [nM]	GI50 [2, 16] [nM]	GI50 [3, 17] [nM]	GI50 [4, 18] [nM]	GI50 [5, 19] [nM]	GI50 [6, 20] [µM]	GI50 (mouse pro-B cell BaF3; [22]) [µM]	GI50 [8, 23] [nM]	GI50 [9, 24] [nM]	GI50 [10, 25] [nM]	GI50 [12] [nM]	Structure (SMILES)	other results
											C=CC(=O)Nc1cc(Nc2nccc(-c3cn(C)c4ccccc34)n2)c(OC)cc1N(C)CCN(C)C [AZD9291, reference compound]	GI50 ([1]; NCI-H1975, 72 h): […]; GI50 ([2]; PC-9, 72 h): 3 nM; GI50 ([3]; HCC827, 72 h): 4 nM; GI50 ([4]; NCI-H3255, 72 h): 31 nM; GI50 ([5]; A-431, 72 h): […]; GI50 ([6]; A549, 72 h): 5 µM; GI50 ([7]; NCI-H460, 72 h): 4 µM; GI50 (mouse pro-B cell BaF3; BaF3, 72 h): 2.7 µM; GI50 [8]: 1800 nM; GI50 [9]: 1.7 nM; GI50 [10]: 22 nM
440	130	97	250	1200	0.83	0.97	2800	6.3	130		C=CC(=O)Nc1cccc(Nc2nc(Nc3ccc(N4CCN(C(C)=O)CC4)cc3OC)ncc2C(F)(F)F)c1 [CO-1686, reference compound]	GI50 [7, 21]: 2.5 µM
53	28	38	28	17	3.7	4.1	13	< 0.3		< 0.3	C=CC(=O)N1CC[C@@H](n2nc(-c3ccc(OCc4cccc(F)c4)c(Cl)c3)c3c(N)ncnc32)C1 [Compound 4, (R)-1-(3-(4-amino-3-(3-chloro-4-((3-fluorobenzyl)oxy)phenyl)-1H-pyrazolo[3,4-d]pyrimidin-1-yl)pyrrolidin-1-yl)prop-2-en-1-one]	GI50 [11]: 130 nM
80	11	39	23		4.3	7.4	2800		< 0.3		C=CC(=O)N1CCC[C@@H](n2nc(-c3ccc(OCc4ccccc4)c(F)c3)c3c(N)ncnc32)C1 [Compound 12, (R)-1-(3-(4-amino-3-(4-(benzyloxy)-3-fluorophenyl)-1H-pyrazolo[3,4-d]pyrimidin-1-yl)piperidin-1-yl)prop-2-en-1-one]	
17	2	16	15		7	5.1	2800		< 0.3		C=CC(=O)N1CCC[C@@H](n2nc(-c3ccc(OCc4cccc(F)c4)c(F)c3)c3c(N)ncnc32)C1 [Compound 13, (R)-1-(3-(4-amino-3-(3-fluoro-4-((3-fluorobenzyl)oxy)phenyl)-1H-pyrazolo[3,4-d]pyrimidin-1-yl)piperidin-1-yl)prop-2-en-1-one]	
< 0.3	35	36	27	> 10000	> 10	> 10	5400	< 0.3	< 0.3	6	C=CC(=O)N1CCC[C@@H](n2nc(-c3ccc(OCc4cccc(C)n4)c(Cl)c3)c3c(N)ncnc32)C1 [Compound 29, (R)-1-(3-(4-amino-3-(3-chloro-4-((6-methylpyridin-2-yl)methoxy)phenyl)-1H-pyrazolo[3,4-d]pyrimidin-1-yl)piperidin-1-yl)prop-2-en-1-one]	GI50 [7, 21]: 4 µM; phosphorylation of EGFR protein [13]: strongly inhibit; phosphorylation of proteins such as AKT308, eIF4E, P70S6K and ERK downstream of EGFR [13]: significant effect
1200	1000	1600	3700	2600		1.9	1300				C=CC(=O)Nc1cc(Cn2nc(-c3ccc(F)c(Cl)c3)c3c(N)ncnc32)ccc1N(C)CCN(C)C [Compound 40]	
2700	3200	3900	> 10000	9000	> 10	9.2	3700	940	1100	1700	CCC(=O)N1CCC[C@@H](n2nc(-c3ccc(OCc4cccc(F)c4)c(Cl)c3)c3c(N)ncnc32)C1 [Compound 51, (R)-1-(3-(4-amino-3-(3-chloro-4-((3-fluorobenzyl)oxy)phenyl)-1H-pyrazolo[3,4-d]pyrimidin-1-yl)piperidin-1-yl)propan-1-one]	GI50 [11]: 3900 nM; GI50 [14]: 1200 nM
